Key:
Format in all cases: functional, cell-based
CCRF-CEM [1] = assay: Antitumor activity against human CCRF-CEM cells assessed as cell killing activity
TF-1 [2] = assay: Antitumor activity against human TF-1 cells assessed as inhibition in cell killing activity
THP-1 [3] = assay: Antitumor activity against human THP-1 cells assessed as inhibition in cell killing activity
K562 [4] = assay: Antitumor activity against human K562 cells assessed as inhibition in cell killing activity
Raji [5] = assay: Antitumor activity against human Raji cells assessed as cell killing activity
Raji [6] = assay: Growth inhibition of human Raji cells measured after 72 hrs by CCK8 assay
TF-1 [7] = assay: Growth inhibition of human TF-1 cells measured after 72 hrs by CCK8 assay; conditions: TF-1, 72 h
THP-1 [8] = assay: Growth inhibition of human THP-1 cells measured after 72 hrs by CCK8 assay; conditions: THP-1, 72 h
K562 [9] = assay: Growth inhibition of human K562 cells measured after 72 hrs by CCK8 assay; conditions: K562, 72 h
CCRF-CEM [10] = assay: Growth inhibition of human CCRF-CEM cells measured after 72 hrs by CCK8 assay

With `CCOC(=O)/C=C/C=C/C=C/C=C/c1ccc[nH]1` the IC50 (CCRF-CEM [1]; read-out: pIC50 (converted)) was 1260 nM, the IC50 (TF-1 [2]) was 250 nM and the IC50 (THP-1 [3]) was 770 nM.
In the case of `CCOC(=O)/C(C)=C/C=C/C=C/C=C/c1[nH]ccc1Cl`, the IC50 (K562 [4]) is reported as 1600 nM, the IC50 (CCRF-CEM [1]; read-out: IC50) is reported as 63 nM and the IC50 (CCRF-CEM [1]; read-out: pIC50 (converted)) is reported as 63.1 nM. For the same compound, the IC50 (Raji [5]) was greater than 10000 nM, the IC50 (TF-1 [2]) was 37 nM and the IC50 (THP-1 [3]) was 150 nM.
Work on `CCOC(=O)/C(C)=C/C=C/c1[nH]ccc1Cl` yielded an IC50 (CCRF-CEM [1]; read-out: IC50) of 8400 nM, an IC50 (CCRF-CEM [1]; read-out: pIC50 (converted)) of 7940 nM and an IC50 (Raji [5]) greater than 10000 nM.
`CCOC(=O)/C(C)=C/C=C/C=C/c1[nH]ccc1Cl` showed an IC50 (CCRF-CEM [1]; read-out: IC50) of 230 nM, an IC50 (CCRF-CEM [1]; read-out: pIC50 (converted)) of 251 nM and an IC50 (Raji [5]) greater than 10000 nM.
For `CCOC(=O)/C(C)=C/C=C/C=C/C=C/c1cccn1C`, the IC50 (CCRF-CEM [1]; read-out: IC50) was greater than 10000 nM, the IC50 (CCRF-CEM [1]; read-out: pIC50 (converted)) was greater than 10000 nM and the IC50 (Raji [5]) was greater than 10000 nM.
`COc1cc(\C(C)=C/C=C/C=C/C=C/c2[nH]ccc2Cl)oc(=O)c1C` gave an IC50 (CCRF-CEM [1]; read-out: pIC50 (converted)) of 1580 nM and an IC50 (Raji [6]) of 10000 nM.
Work on `CCOC(=O)/C(C)=C/C=C/C=C/C=C/c1ccc[nH]1` yielded an IC50 (K562 [4]) of 280 nM, an IC50 (CCRF-CEM [1]; read-out: IC50) of 90 nM and an IC50 (CCRF-CEM [1]; read-out: pIC50 (converted)) of 79.4 nM. For the same compound, the IC50 (Raji [5]) was 1600 nM, the IC50 (TF-1 [2]) was 92 nM and the IC50 (THP-1 [3]) was 98 nM.
`CCOC(=O)/C=C/C=C/C=C/C=C/c1[nH]ccc1Cl` gave an IC50 (TF-1 [7]) of 230 nM, an IC50 (THP-1 [8]) of 1200 nM and an IC50 (CCRF-CEM [1]; read-out: pIC50 (converted)) of 251 nM. It also gave an IC50 (K562 [9]) greater than 10000 nM and an IC50 (Raji [6]) of 10000 nM.
`COc1cc(/C=C/C=C/C=C/C=C/c2[nH]ccc2Cl)oc(=O)c1` [AUXARCONJUGATIN B] showed an IC50 (K562 [4]) of 4900 nM, an IC50 (CCRF-CEM [1]; read-out: pIC50 (converted)) of 501 nM and an IC50 (TF-1 [2]) of 440 nM. For the same compound, the IC50 (THP-1 [3]) was 1300 nM.
With `CCOC(=O)/C=C/C=C/C=C/C=C/c1cccn1C` the IC50 (CCRF-CEM [1]; read-out: pIC50 (converted)) was greater than 10000 nM, the IC50 (CCRF-CEM [10]) was 10000 nM and the IC50 (Raji [6]) was 10000 nM.

From ChEMBL document CHEMBL5365491, “Synthesis and anti-tumor activities in human leukemia-derived cells of polyenylpyrroles with a methyl group at the conjugated polyene terminus” (Bioorg Med Chem Lett, 2023)
